Patent US12612409B2, “Pyrrolopyrimidines as CFTR potentiators” (Cystic Fibrosis Foundation, priority 2016, dated 2026)

Columns and labels:
[1] = molecular target: T1, recombinant F508del V470 CFTR in Fischer rat thyroid (FRT) cells (Homo sapiens, UniProt P13569, DEL508-508); assay: FRT ion flux assay of F508del CFTR potentiation; format: cell-based; settings: FRT cells expressing F508del V470 CFTR, forskolin 20 uM, 27° C. pre-incubation
T1 construct: expressed in transfected cells
How it was run: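 FRT cells co-expressing F508del V470 CFTR and halide-sensitive YFP, temperature-corrected at 27° C for 16-24 h, then treated 30 min with compound plus 20 uM forskolin. Iodide addition quenches YFP, read after ~21 s; ratio scaled to DMSO (0%) and positive control potentiator (100%).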

[2] = molecular target: T2, CFTR in G551D/F508del primary CF hBE cells (Homo sapiens, UniProt P13569, G551D); assay: Ussing chamber electrophysiology assay of CFTR potentiation in G551D/F508del CF bronchial epithelial cells (35° C.); format: cell-based; settings: G551 D/F508del Ussing chamber assay at 35 degrees Celsius
T2 construct: Primary cystic fibrosis human bronchial epithelial (CF hBE) cells were expanded and cultured; endogenous in cells; host or cells: primary CF human bronchial epithelial cells, genotype G551D/F508del
Text: • SHELXTL, Version 5.1, Bruker AXS, 1997. • PLATON, A. L. Spek, J. Appl. Cryst. 2003, 36, 7-13. • MERCURY, C. F. Macrae, P. R. Edington, P. McCabe, E. Pidcock, G. P. Shields, R. Taylor, M. Towler and J. van de Streek, J. Appl. Cryst. 39, 453-457, 2006. • OLEX2, Dolomanov, O. V.; Bourhis, L. J.; Gildea, R. J.; Howard, J. A. K.; Puschmann, H., (2009). J. Appl. Cryst., 42, 339-341. • R. W. W. Hooft et al. J. Appl. Cryst. (2008). 41. 96-103. • H. D. Flack, Acta Cryst. 1983, A39, 867-881. Using Chamber Electrophysiology Assay of CFTR Potentiation in CF Bronchial Epithelial Cells
Primary cystic fibrosis human bronchial epithelial (CF hBE) cells were expanded and cultured according to published methods (Neuberger et al., Ch. 4 of Cystic Fibrosis, Methods in Molecular Biology vol. 741, pp. 39-54 (2011)). Well-differentiated cells (>30 days at air/liquid interface) on Snapwell filters (Corning Costar, cat. no. 3801) were mounted in Ussing chambers (Physiologic Instruments, Inc., San Diego, CA). […] HEPES buffered physiological saline (composition (in mM): 137 NaCl, 4 KCl, 1 MgCl2, 1.8 CaCl2), 10 HEPES Na) was used in both apical and basolateral chambers. Chambers were bubbled with air to promote mixing and the voltage was clamped to zero. Amiloride (30 uM), forskolin (10 uM), test compound (4 increasing concentrations), and CFTRinh-172 (20 uM) were added sequentially with 20-25 minutes between additions. Short-circuit currents were acquired and analyzed using LabScribe2. Test compound responses were scaled relative to responses for DMSO (0%) and the maximal response of a positive control potentiator (100%).

[3] = molecular target: T3, CFTR in F508del/F508del primary CF hBE cells (Homo sapiens, UniProt P13569, DEL508-508); assay: Ussing chamber electrophysiology assay of CFTR potentiation in F508del/F508del CF bronchial epithelial cells (27° C.); format: cell-based
T3 construct: Primary cystic fibrosis human bronchial epithelial (CF hBE) cells were expanded and cultured; endogenous in cells; host or cells: primary CF human bronchial epithelial cells, genotype F508del/F508del
How it was run: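 Well-differentiated primary CF hBE cells (>30 days air/liquid interface) in Ussing chambers, HEPES saline both sides, voltage clamped to zero. Amiloride 30 uM, forskolin 10 uM, four rising compound concentrations, then CFTRinh-172 20 uM added at 20-25 min intervals. Short-circuit current scaled to DMSO (0%) and a positive control potentiator maximum (100%).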

[4] = tested on: F508del homozygote patients; settings: cited from earlier work
G551 D patients = settings: cited from earlier work

T3 sequence (P13569 with tags, fused parts or gaps DEL508-508): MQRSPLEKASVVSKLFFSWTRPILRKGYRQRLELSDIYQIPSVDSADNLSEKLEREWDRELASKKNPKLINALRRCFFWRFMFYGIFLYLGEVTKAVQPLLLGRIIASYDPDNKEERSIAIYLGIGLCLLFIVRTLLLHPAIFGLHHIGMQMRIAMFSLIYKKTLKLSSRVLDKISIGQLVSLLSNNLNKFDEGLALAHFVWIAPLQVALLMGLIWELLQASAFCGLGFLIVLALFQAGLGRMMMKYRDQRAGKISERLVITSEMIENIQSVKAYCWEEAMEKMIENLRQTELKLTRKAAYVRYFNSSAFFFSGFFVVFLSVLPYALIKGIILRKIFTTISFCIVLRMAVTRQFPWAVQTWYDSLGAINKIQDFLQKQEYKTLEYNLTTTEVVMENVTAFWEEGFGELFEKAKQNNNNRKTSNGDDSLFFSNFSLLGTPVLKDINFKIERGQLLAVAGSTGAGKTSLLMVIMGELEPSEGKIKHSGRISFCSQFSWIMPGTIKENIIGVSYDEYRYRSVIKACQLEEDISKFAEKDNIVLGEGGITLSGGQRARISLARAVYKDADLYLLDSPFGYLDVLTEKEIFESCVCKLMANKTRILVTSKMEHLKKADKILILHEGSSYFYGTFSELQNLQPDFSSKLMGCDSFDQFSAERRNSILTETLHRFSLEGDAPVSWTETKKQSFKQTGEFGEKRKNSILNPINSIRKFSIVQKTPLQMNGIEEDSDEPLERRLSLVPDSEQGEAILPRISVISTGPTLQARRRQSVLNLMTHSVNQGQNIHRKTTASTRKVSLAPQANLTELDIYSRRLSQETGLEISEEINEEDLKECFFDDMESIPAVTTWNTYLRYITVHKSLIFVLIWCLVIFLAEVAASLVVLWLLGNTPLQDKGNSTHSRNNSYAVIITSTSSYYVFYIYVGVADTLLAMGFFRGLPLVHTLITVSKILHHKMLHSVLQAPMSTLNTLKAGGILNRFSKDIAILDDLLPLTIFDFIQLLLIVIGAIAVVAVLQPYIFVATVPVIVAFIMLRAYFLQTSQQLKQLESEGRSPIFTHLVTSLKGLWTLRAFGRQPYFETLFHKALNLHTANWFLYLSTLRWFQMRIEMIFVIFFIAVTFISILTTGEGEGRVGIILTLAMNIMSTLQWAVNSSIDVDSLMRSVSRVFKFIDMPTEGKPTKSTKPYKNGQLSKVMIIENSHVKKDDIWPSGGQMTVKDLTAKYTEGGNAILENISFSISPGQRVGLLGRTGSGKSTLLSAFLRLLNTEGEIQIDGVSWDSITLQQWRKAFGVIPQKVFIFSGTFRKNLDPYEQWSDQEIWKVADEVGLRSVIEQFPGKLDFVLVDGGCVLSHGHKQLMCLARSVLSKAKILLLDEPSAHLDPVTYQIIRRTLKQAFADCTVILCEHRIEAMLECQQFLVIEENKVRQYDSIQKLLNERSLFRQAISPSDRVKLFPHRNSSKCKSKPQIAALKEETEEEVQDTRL
T1 sequence (P13569 with tags, fused parts or gaps DEL508-508): as above
T2 sequence (P13569 whole entry F508del/G551D): as the sequence (P13569 with tags, fused parts or gaps DEL508-508) above, with G550D counted along it

CCC(c1cn(-c2ccccc2F)nn1)n1cc(-c2cncnc2OC)c2c(N)ncnc21 (single isomer, unassigned; enantiomer 2) [Example 134, (+) 7-{1-[1-(2-Fluorophenyl)-1H-1,2,3-triazol-4-yl]propyl}-5-(4-methoxypyrimidin-5-yl)-7H-pyrrolo[2,3-d]pyrimidin-4-amine, enantiomer 2]
EC50 [1]: 13.4 nM
EC50 [2]: 826 nM
EC50 [3]: 28.9 nM

CC(C)(C)c1cc(C(C)(C)C)c(NC(=O)c2c[nH]c3ccccc3c2=O)cc1O [Kalydeco, ivacaftor]
improvement on monotherapy [4]: did not lead to any appreciable improvement
frequency of pulmonary exacerbations (G551 D patients): reduced the frequency of pulmonary exacerbations
lung function, percent predicted FEV1 increased (G551 D patients): 10-13%
weight (G551 D patients): allowed weight gain
